Data on five substances can be found in patent publication US8911717B2, “Polymalic acid-based multifunctional drug delivery system” (Cedars-Sinai Medical Center, priority 2003, dated 2014).

For data set [1], the system named is protein kinase CK2 α chain. In words: Western blot of CK2 expression in cell lysates. It counts as cell-based, human. Conditions: U251MG glioma cells treated for 3 days; compared to untreated control or EPEI-treated control. The procedure:
The protein kinase CK2 complex is a tetramer comprised of catalytic α, α′ subunits and regulatory […] subunits that form complexes such as α2β2, αα′β2 and α′2β2. To achieve downregulation of CK2, the antisense oligonucleotides against the CK2 catalytic subunit a were conjugated to PMLA. Morpholino™-NH2 antisense oligonucleotides to the protein kinase CK2 catalytical domain a chain purchased from Gene Tools (USA) were as follows:
Inhibition of CK2 expression in vitro was assessed in the cell lysates of cultured glioma cell line U251MG treated for 3 days with nanoconjugates containing Morpholino antisense oligonucleotides CK2a-1, CK2a-2 or CK2a-3.

In a further data set the test system is fresh human RBCs. The data set can be described thus: red blood cell (RBC) hemolysis assay (membrane disruptive activity). It counts as cell-based. The conditions noted are these: pH 5.85 or pH 5.5; 2.5 nmol/10^8 RBCs; 1 h at 37° C.; absorbance of supernatant at 541 nm. The protocol:
The fresh human RBCs were isolated by centrifugation of whole human blood at 2000 g for 5 min. The RBCs were washed three times with cold 100 mM sodium phosphate buffer of the desired pH (pH 5.85 or pH 5.5). The final pellet was resuspended in the same buffer to give a solution with […] RBCs per 1 ml. The polymers were dissolved in 100 mM dibasic sodium phosphate buffer at the desired pH at a concentration of 10 mg/ml. The polymer concentration was 2.5 nmol/10^8 RBCs. Hemolysis in distilled water was used to produce 100% lysis. RBCs in buffer with no polymer was used as reference controls. The hemolysis assay was performed by adding the polymer solution to the suspended RBCs in 1 ml of the appropriate buffer. The RBCs were mixed by inverting the tube several times, and incubated for 1 h in a 37° C. water bath. After incubation, the RBCs were centrifuged for […] at 13,500×g to sediment intact cells and the lysis was determined by measuring the absorbance of the supernatants at 541 nm which reflects the amount of hemoglobin released by the RBCs. The relative increase 100(A-Ao)/Atotal in absorbance at 541 nm wavelength of the cell-free supernatant was measured as an indicator of membrane rupture. […]

As for “CK2a-1: PMLA nanoconjugate containing Morpholino antisense oligonucleotide CK2a-1, SEQ ID NO: 3, GATCTGGCAGTCACTGTGTTCAGAA (all phosphorodiamidate morpholino (PMO); amine-modified morpholino conjugated to polymalic acid nanoconjugate carrier, further chemistry not fully specified)”, the “CK2 α chain expression, Western blot” value in data set [1] is listed as “reduction”.

“CK2a-2: PMLA nanoconjugate containing Morpholino antisense oligonucleotide CK2a-2, SEQ ID NO: 4, CCTGCTTGGCACGGGTCCCGACAT (all phosphorodiamidate morpholino (PMO); amine-modified morpholino conjugated to polymalic acid nanoconjugate carrier, further chemistry not fully specified)”: the “CK2 α chain expression, Western blot” value in data set [1] is “reduction”.

On to “CK2a-3: PMLA nanoconjugate containing Morpholino antisense oligonucleotide CK2a-3, SEQ ID NO: 5, CGGACAAAGCTGGACTTGATGTTT (all phosphorodiamidate morpholino (PMO); amine-modified morpholino conjugated to polymalic acid nanoconjugate carrier, further chemistry not fully specified)”, for which the “CK2 α chain expression, Western blot” value in data set [1] is “reduction”.

For “PMLA/L-valine/2-mercaptoethylamine/mPEG-NH2 conjugate [PMLA-PEG-Valine]”, the “membrane disruptive activity (effect on RBC membranes)” value in the data set on fresh human RBCs is listed as “infer membrane destabilization”.

For the substance “PMLA/mAB OX-26/morpholino antisense oligonucleotide/L-valine/2-mercaptoethylamine/mPEG-NH2 conjugate [PMLA-PEG-Valine-AS-mAB]”, the “membrane disruptive activity (effect on RBC membranes)” value with fresh human RBCs is on record as “infer membrane destabilization”.
